Values after ≈ are worked out from the molar mass of the structure shown.
How the values were obtained:
Assay type in all cases: cell-based
[1] = test system: SK-OV-3 (ATCC HTB 77): human ovarian adenocarcinoma; test: In vitro antitumor activity, MTT assay, SK-OV-3; conditions: Homo sapiens, SK-OV-3, Table 4, 48 hrs
Experimental: (§1) In vitro antitumor activity against human tumor cell lines
(§2) In vitro antitumor activity of the compounds according to the present invention was determined by MTT assay method against the following human tumor cell lines:
SK-OV-3 (ATCC HTB 77): human ovarian adenocarcinoma
(§3) In this test, the known antineoplastic compounds, Doxorubicin and Sulofenur, were used as the comparative agents.
(§4) Each of the tumor cells was cultured in RPMI 1640 media containing 10% fetal bovine serum, 100 IU/ml penicillin and 100 μg/ml streptomycin, and then periodically subcultured once or twice per week in trypsin-EDTA solution containing 0.05% trypsin and 0.53mM EDTA.4Na. The human tumor cell line thus obtained (10,000cells/100 μl) was plated on 96-well microplate and then cultured for 24 hrs at 37° C. in a 5% CO2 incubator. Test compound was dissolved in DMSO, sterilized with 0.22 μm PVDF filter, and then serially 5-fold diluted from 40 μg/ml to 0.00256μg/ml. 100 μl of the sample solution thus prepared and RPMI 1640 medium only (control group) were added to 96-well microplate containing the human tumor cell, respectively. The final concentration of the test compound was in the range from 20 μg/ml to 0.00128 μg/ml and the concentration of DMSO was below 0.5%. The cells were cultured for 48 hrs at 37° C. in a 5% CO2 incubator. MTT(3-(4,5-Dimethylthiazole-2-yl)-e,5-diphenyltetrazoliumbromide) was dissolved in physiological saline in a concentration of 2 mg/ml and the resulting solution was filtered through 0.22 μm PTFE filter. 25 μl of MTT solution thus prepared was added to each well of 96-well microplate and incubated for additional 4 hrs at 37° C. in a 5% CO2 incubator. Then, the content of microplate was centrifuged at 1000 rpm for 10 min, and supernatant was removed by flicking. The formazan formed from MTT by mitochondrial succinate dehydrogenase was dissolved in 100 μl of DMSO. The absorbance of each well was measured at 540nm by micro ELISA reader and the cytotoxicity was calculated by dividing the absorbance of test group by the absorbance of control group. After the calculated cytotoxicity (%) was plotted, the concentration of 50% tumor growth inhibition concentration (IC50) was estimated by Linear-Regression method.

[2] = test system: A549 (ATCC CCL 185): human lung carcinoma; test: In vitro antitumor activity, MTT assay, A549; conditions: Homo sapiens, A549, 48 h, Table 4
Experimental: as §1, §2
A549 (ATCC CCL 185): human lung carcinoma
as §3, §4

[3] = test system: K562 (ATCC CCL 243): human chronic myelogenous leukemia; test: In vitro antitumor activity, MTT assay, K562; conditions: Homo sapiens, K562, 48 h, Table 4, read-out: IC50 (K562)
Experimental: as §1, §2
K562 (ATCC CCL 243): human chronic myelogenous leukemia
as §3, §4

Row | SMILES | IC50 [1] | IC50 [2] | IC50 [3]
1 | CCOc1ccc(C(=O)N2CCc3cc(S(=O)(=O)N4CC(c5ccccc5)NC4=O)ccc32)cc1 (stereo not drawn) [Example 52, 4-phenyl-1-[N-(4-ethoxybenzoyl)indoline-5-sulfonyl]-4,5-dihydro-2-imidazolone] | 2.22 µg/mL (≈ 4.51 µM) | 0.101 µg/mL (≈ 0.205 µM) | 
2 | O=C(c1ccc(Cl)cc1)N1CCc2cc(S(=O)(=O)N3CC(c4ccccc4)NC3=O)ccc21 (stereo not drawn) [Example 53, 4-phenyl-1-[N-(4-chlorobenzoyl)indoline-5-sulfonyl]-4,5-dihydro-2-imidazolone] | 5.97 µg/mL (≈ 12.4 µM) | 0.774 µg/mL (≈ 1.61 µM) | 0.594 µg/mL (≈ 1.23 µM)
3 | O=C(c1ccc(F)cc1)N1CCc2cc(S(=O)(=O)N3CC(c4ccccc4)NC3=O)ccc21 (stereo not drawn) [Example 54, 4-phenyl-1-[N-(4-fluorobenzoyl)indoline-5-sulfonyl]-4,5-dihydro-2-imidazolone] | 2.33 µg/mL (≈ 5 µM) | 0.59 µg/mL (≈ 1.27 µM) | 3.64 µg/mL (≈ 7.83 µM)
4 | O=C(c1ccc([N+](=O)[O-])cc1)N1CCc2cc(S(=O)(=O)N3CC(c4ccccc4)NC3=O)ccc21 (stereo not drawn) [Example 55, 4-phenyl-1-[N-(4-nitrobenzoyl)indoline-5-sulfonyl]-4,5-dihydro-2-imidazolone] | 2.09 µg/mL (≈ 4.24 µM) | 1.7 µg/mL (≈ 3.45 µM) | 8.88 µg/mL (≈ 18 µM)
5 | N#Cc1ccc(C(=O)N2CCc3cc(S(=O)(=O)N4CC(c5ccccc5)NC4=O)ccc32)cc1 (stereo not drawn) [Example 56, 4-phenyl-1-[N-(4-cyanobenzoyl)indoline-5-sulfonyl]-4,5-dihydro-2-imidazolone] | 0.968 µg/mL (≈ 2.05 µM) | 1.59 µg/mL (≈ 3.36 µM) | 4.96 µg/mL (≈ 10.5 µM)
6 | O=C(c1cccc(Cl)c1)N1CCc2cc(S(=O)(=O)N3CC(c4ccccc4)NC3=O)ccc21 (stereo not drawn) [Example 58, 4-phenyl-1-[N-(3-chlorobenzoyl)indoline-5-sulfonyl]-4,5-dihydro-2-imidazolone] | 2.6 µg/mL (≈ 5.39 µM) | 1.62 µg/mL (≈ 3.36 µM) | 7.04 µg/mL (≈ 14.6 µM)
7 | O=C(c1cc(Cl)cc(Cl)c1)N1CCc2cc(S(=O)(=O)N3CC(c4ccccc4)NC3=O)ccc21 (stereo not drawn) [Example 59, 4-phenyl-1-[N-(3,5-dichlorobenzoyl)indoline-5-sulfonyl]-4,5-dihydro-2-imidazolone] | 16.5 µg/mL (≈ 32 µM) | 2.02 µg/mL (≈ 3.92 µM) | 1.88 µg/mL (≈ 3.64 µM)
8 | O=C(c1cccc(F)c1)N1CCc2cc(S(=O)(=O)N3CC(c4ccccc4)NC3=O)ccc21 (stereo not drawn) [Example 60, 4-phenyl-1-[N-(3-fluorobenzoyl)indoline-5-sulfonyl]-4,5-dihydro-2-imidazolone] | 8.51 µg/mL (≈ 18.3 µM) | 0.328 µg/mL (≈ 0.705 µM) | 0.619 µg/mL (≈ 1.33 µM)
9 | O=C(c1ccc(F)cc1F)N1CCc2cc(S(=O)(=O)N3CC(c4ccccc4)NC3=O)ccc21 (stereo not drawn) [Example 61, 4-phenyl-1-[N-(2,4-difluorobenzoyl)indoline-5-sulfonyl]-4,5-dihydro-2-imidazolone] | 1.52 µg/mL (≈ 3.14 µM) | 1.94 µg/mL (≈ 4.01 µM) | 5.66 µg/mL (≈ 11.7 µM)
10 | O=C(c1cccc(C(F)(F)F)c1)N1CCc2cc(S(=O)(=O)N3CC(c4ccccc4)NC3=O)ccc21 (stereo not drawn) [Example 62, 4-phenyl-1-[N-(3-trifluoromethylbenzoyl)indoline-5-sulfonyl]-4,5-dihydro-2-imidazolone] | 11.8 µg/mL (≈ 22.8 µM) | 2.18 µg/mL (≈ 4.24 µM) | 1.37 µg/mL (≈ 2.65 µM)
11 | O=C(c1cccc(OC(F)(F)F)c1)N1CCc2cc(S(=O)(=O)N3CC(c4ccccc4)NC3=O)ccc21 (stereo not drawn) [Example 63, 4-phenyl-1-[N-(3-trifluoromethoxybenzoyl)indoline-5-sulfonyl]-4,5-dihydro-2-imidazolone] | 11.3 µg/mL (≈ 21.4 µM) | 2.74 µg/mL (≈ 5.15 µM) | 
12 | O=C(c1ccc(OC(F)(F)F)cc1)N1CCc2cc(S(=O)(=O)N3CC(c4ccccc4)NC3=O)ccc21 (stereo not drawn) [Example 64, 4-phenyl-1-[N-(4-trifluoromethoxybenzoyl)indoline-5-sulfonyl]-4,5-dihydro-2-imidazolone] | 2.96 µg/mL (≈ 5.56 µM) | 0.695 µg/mL (≈ 1.31 µM) | 
